Measured values as given in US8399465B2, “Compounds with two fused bicyclic heteroaryl moieties as modulators of leukotriene A4 hydrolase” (Janssen Pharmaceutica NV, priority 2009, dated 2013).
Structures can show the parent of a compound that is named as a salt.

Key:
[1] = biological target: T1, recombinant human LTA4 hydrolase (rhLTA4H) (Homo sapiens, UniProt P09960); assay: Recombinant human LTA4 hydrolase assay for LTA4 hydrolase inhibitor activity; format: biochemical; conditions: rhLTA4H, LTB4 by immunoassay; single determination or average of two or more; mark after value = form tested: ′ free base, ″ hydrochloride, ^ formate; read-out: IC50
T1 construct: made in house; host or cells: Spodoptera frugiperda (Sf-9) cells, baculovirus (pFastBac1)
T1 sequence (P09960 1-611): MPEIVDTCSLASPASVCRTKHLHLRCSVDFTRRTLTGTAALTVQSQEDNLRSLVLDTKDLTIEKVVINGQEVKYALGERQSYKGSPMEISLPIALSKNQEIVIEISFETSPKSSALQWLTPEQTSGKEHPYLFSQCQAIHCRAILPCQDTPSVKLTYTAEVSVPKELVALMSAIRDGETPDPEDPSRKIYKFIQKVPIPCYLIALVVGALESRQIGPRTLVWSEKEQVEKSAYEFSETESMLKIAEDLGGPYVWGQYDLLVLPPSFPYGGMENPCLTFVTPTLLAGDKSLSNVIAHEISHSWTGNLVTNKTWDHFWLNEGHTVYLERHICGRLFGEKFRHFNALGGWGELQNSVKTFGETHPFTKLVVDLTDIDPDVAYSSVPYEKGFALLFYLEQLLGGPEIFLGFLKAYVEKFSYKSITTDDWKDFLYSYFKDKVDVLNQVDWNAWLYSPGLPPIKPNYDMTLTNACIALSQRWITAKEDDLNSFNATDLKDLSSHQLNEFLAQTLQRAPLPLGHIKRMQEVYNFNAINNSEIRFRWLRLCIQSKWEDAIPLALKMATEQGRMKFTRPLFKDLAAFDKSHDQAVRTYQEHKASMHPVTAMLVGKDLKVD
Outline: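 Baculovirus/Sf-9-expressed human LTA4H (10 ng) was preincubated 10 min at rt with compound in assay buffer (10% DMSO in compound dilution), then reacted 30 min at rt with LTA4 free acid made from its methyl ester. LTB4 produced was measured by ELISA after dilution; IC50 from non-linear regression, single or averaged determinations.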

[2] = test system: LTB4 production in murine blood (LTA4H); assay: LTB4 production by calcium ionophore-stimulated murine blood for LTA4H inhibitor activity; format: cell-based, CD-1 mice; conditions: Mus musculus; murine blood diluted 1 in 15, A23187 stimulated; single determination or average; mark after value = form tested: ′ free base, ″ hydrochloride, ^ formate; read-out: IC50
Experimental: Assay 2: LTB4 Production by Calcium Ionophore-Stimulated Murine Blood for LTA4H Inhibitor Activity
CD-1 mice were sacrificed, and blood was collected in heparin-containing syringes by cardiac puncture. […] After the microtiter plate contents were incubated for 15 min at 37° C. in a humidified incubator, calcium ionophore A23187 (Sigma Chemical Co., St. Louis, Mo.) was added to each sample well (final concentration=7 μg/mL). The incubation was continued under the same conditions for an additional 30 min to allow LTB4 formation. The reaction was terminated by centrifugation (833×g, 10 min at 4° C.), and supernatants were analyzed for LTB4 by a commercially available enzyme-linked immunoassay (Cayman Chemical Co.) according to the manufacturer's instructions. Positive controls, under essentially identical conditions but without addition of an inhibitor compound, and negative unstimulated controls, containing all assay components except calcium ionophore, were routinely run in each experiment. […] The values presented here are the result of a single determination or an average of two or more determinations.

Row | Structure (SMILES) | IC50 [1] | IC50 [2]
1 | CC(=O)N[C@H]1C[C@H]2CC[C@@H](C1)N2Cc1c[nH]c2cc(Oc3nc4ccccc4s3)ccc12 [Example 13, meso-endo-N-{8-[6-(Benzothiazol-2-yloxy)-1H-indol-3-ylmethyl]-8-aza-bicyclo[3.2.1]oct-3-yl}-acetamide] | 2 nM | 100 nM
2 | CC(=O)N[C@H]1C[C@H]2CC[C@@H](C1)N2Cc1c[nH]c2cc(Oc3nc4c(F)cccc4s3)ccc12 [Example 14, meso-endo-N-{8-[6-(4-Fluoro-benzothiazol-2-yloxy)-1H-indol-3-ylmethyl]-8-aza-bicyclo[3.2.1]oct-3-yl}-acetamide] | – | 66 nM
3 | CC(=O)N[C@H]1C[C@H]2CC[C@@H](C1)N2Cc1c[nH]c2cc(Oc3nc4ncccc4s3)ccc12 [Example 18, meso-endo-N-{8-[6-(Thiazolo[4,5-b]pyridin-2-yloxy)-1H-indol-3-ylmethyl]-8-aza-bicyclo[3.2.1]oct-3-yl}-acetamide] | 1 nM | 301 nM
4 | O=C(c1ccccc1)C1CCN(C(=O)c2coc3cc(Oc4nc5ncccc5s4)ccc23)CC1 [Example 387, (4-Benzoyl-piperidin-1-yl)-[6-(thiazolo[4,5-b]pyridin-2-yloxy)-benzofuran-3-yl]-methanone] | 150 nM | –
5 | CN(C)CCCN(C)C(=O)c1coc2cc(Oc3nc4ncccc4s3)ccc12 [Example 388, 6-(Thiazolo[4,5-b]pyridin-2-yloxy)-benzofuran-3-carboxylic acid (3-dimethylamino-propyl)-methyl-amide] | 150 nM | –
6 | COC(=O)c1ccc(C(=O)NCc2coc3cc(Oc4nc5ncccc5s4)ccc23)cc1 [Example 393, N-[6-(Thiazolo[4,5-b]pyridin-2-yloxy)-benzofuran-3-ylmethyl]-terephthalamic acid methyl ester] | 100 nM | –
7 | O=C(Cc1ccc(Cl)cc1)NCc1coc2cc(Oc3nc4ncccc4s3)ccc12 [Example 394, 2-(4-Chloro-phenyl)-N-[6-(thiazolo[4,5-b]pyridin-2-yloxy)-benzofuran-3-ylmethyl]-acetamide] | 85 nM | –
8 | CC(=O)NCc1coc2cc(Oc3nc4ncccc4s3)ccc12 [Example 395, N-[6-(Thiazolo[4,5-b]pyridin-2-yloxy)-benzofuran-3-ylmethyl]-acetamide] | 85 nM | –
9 | O=C1Cc2ccc(C(F)(F)F)cc2N1Cc1coc2cc(Oc3nc4ncccc4s3)ccc12 [Example 398, 1-[6-(Thiazolo[4,5-b]pyridin-2-yloxy)-benzofuran-3-ylmethyl]-6-trifluoromethyl-1,3-dihydro-indol-2-one] | 470 nM | –
10 | O=C1Cc2cc(C(F)(F)F)ccc2N1Cc1coc2cc(Oc3nc4ncccc4s3)ccc12 [Example 400, 1-[6-(Thiazolo[4,5-b]pyridin-2-yloxy)-benzofuran-3-ylmethyl]-5-trifluoromethyl-1,3-dihydro-indol-2-one] | 1120 nM | –
11 | O=C1Cc2cc(Cl)ccc2N1Cc1coc2cc(Oc3nc4ncccc4s3)ccc12 [Example 401, 5-Chloro-1-[6-(thiazolo[4,5-b]pyridin-2-yloxy)-benzofuran-3-ylmethyl]-1,3-dihydro-indol-2-one] | 1020 nM | –
12 | CC(=O)N(Cc1coc2cc(Oc3nc4ncccc4s3)ccc12)[C@H]1CN2CCC1CC2 [Example 404, (R)—N-(1-Aza-bicyclo[2.2.2]oct-3-yl)-N-[6-(thiazolo[4,5-b]pyridin-2-yloxy)-benzofuran-3-ylmethyl]-acetamide formate] | 2 nM | –
13 | c1ccc2sc(Oc3ccc4c(CN5CCCCC5)coc4c3)nc2c1 [Example 405, 2-(3-Piperidin-1-ylmethyl-benzofuran-6-yloxy)-benzothiazole] | 77 nM | –
14 | c1ccc2sc(Oc3ccc4cc(CN5CCCCC5)oc4c3)nc2c1 [Example 406, 2-(2-Piperidin-1-ylmethyl-benzofuran-6-yloxy)-benzothiazole] | 492 nM | –

The remaining lines, values ahead:

Row | IC50 [1] | IC50 [2] | Structure (SMILES)
15 | 12 nM | 68 nM | c1ccc2sc(Oc3ccc4c(CN5CCCC5)c[nH]c4c3)nc2c1 [Example 1, 2-(3-Pyrrolidin-1-ylmethyl-1H-indol-6-yloxy)-benzothiazole]
16 | 19 nM | 78 nM | c1ccc2sc(Oc3ccc4c(CN5CCCCC5)c[nH]c4c3)nc2c1 [Example 2, 2-(3-Piperidin-1-ylmethyl-1H-indol-6-yloxy)-benzothiazole]
17 | 16 nM | 303 nM | c1ccc2sc(Oc3ccc4c(CN5CCOCC5)c[nH]c4c3)nc2c1 [Example 3, 2-(3-Morpholin-4-ylmethyl-1H-indol-6-yloxy)-benzothiazole]
18 | 23 nM | 190 nM | CS(=O)(=O)C1CCN(Cc2c[nH]c3cc(Oc4nc5ccccc5s4)ccc23)CC1 [Example 4, 2-[3-(4-Methanesulfonyl-piperidin-1-ylmethyl)-1H-indol-6-yloxy]-benzothiazole]
19 | 54 nM | 901 nM | CN(Cc1ccccc1)Cc1c[nH]c2cc(Oc3nc4ccccc4s3)ccc12 [Example 5, [6-(Benzothiazol-2-yloxy)-1H-indol-3-ylmethyl]-benzyl-methyl-amine]
20 | 17 nM | 968 nM | c1ccc2c(c1)CN(Cc1c[nH]c3cc(Oc4nc5ccccc5s4)ccc13)C2 [Example 6, 2-[3-(1,3-Dihydro-isoindol-2-ylmethyl)-1H-indol-6-yloxy]-benzothiazole]
21 | 42 nM | 476 nM | c1ccc2c(c1)CCN(Cc1c[nH]c3cc(Oc4nc5ccccc5s4)ccc13)C2 [Example 7, 2-[6-(Benzothiazol-2-yloxy)-1H-indol-3-ylmethyl]-1,2,3,4-tetrahydro-isoquinoline]
22 | 11 nM | 1140 nM | c1ccc(C2CCN(Cc3c[nH]c4cc(Oc5nc6ccccc6s5)ccc34)CC2)cc1 [Example 8, 2-[3-(4-Phenyl-piperidin-1-ylmethyl)-1H-indol-6-yloxy]-benzothiazole]
23 | 13 nM | 250 nM | c1ccc2sc(Oc3ccc4c(CN5C[C@@H]6C[C@H]5CO6)c[nH]c4c3)nc2c1 [Example 12, (1S,4S)-2-[3-(2-Oxa-5-aza-bicyclo[2.2.1]hept-5-ylmethyl)-1H-indol-6-yloxy]-benzothiazole]
24 | 13 nM | 152 nM | c1ccc2oc(Oc3ccc4c(CN5CCCCC5)c[nH]c4c3)nc2c1 [Example 15, 2-(3-Piperidin-1-ylmethyl-1H-indol-6-yloxy)-benzooxazole]
25 | 3 nM | 17 nM | c1cnc2nc(Oc3ccc4c(CN5CCCCC5)c[nH]c4c3)sc2c1 [Example 16, 2-(3-Piperidin-1-ylmethyl-1H-indol-6-yloxy)-thiazolo[4,5-b]pyridine]
26 | 2 nM | 118 nM | NC(=O)C1CCN(Cc2c[nH]c3cc(Oc4nc5ncccc5s4)ccc23)CC1 [Example 17, 1-[6-(Thiazolo[4,5-b]pyridin-2-yloxy)-1H-indol-3-ylmethyl]-piperidine-4-carboxylic acid amide]
27 | 2 nM | 104 nM | CC(=O)N1C[C@@H]2C[C@H]1CN2Cc1c[nH]c2cc(Oc3nc4ncccc4s3)ccc12 [Example 19, (1S,4S)-1-{5-[6-(Thiazolo[4,5-b]pyridin-2-yloxy)-1H-indol-3-ylmethyl]-2,5-diaza-bicyclo[2.2.1]hept-2-yl}-ethanone]
28 | 52 nM | – | O=C(O)c1ccc(C(=O)NCc2coc3cc(Oc4nc5ncccc5s4)ccc23)cc1 [Example 396, N-[6-(Thiazolo[4,5-b]pyridin-2-yloxy)-benzofuran-3-ylmethyl]-terephthalamic acid]
